≈ marks a conversion by molar mass, not a printed value.
Tests used:
[1] = Sigma-Aldrich product B7510, powder; cited from earlier work
[2] = tested on: Hsp90 chaperone (refolding of PRA in RRL); assay: Progesterone receptor (PR) reconstitution assay in rabbit reticulocyte lysate, recovery of hormone binding activity; type: biochemical
Text: To identify novel small molecule inhibitors of molecular chaperones, a high-throughput functional screen was developed based on the isoform A of progesterone receptor (PRA), a well-established physiological client of Hsp90, and using rabbit reticulocyte lysate (RRL) as a source of molecular chaperones. This comprehensive functional assay measured the recovery of hormone binding activity of PRA after mild heat treatment. Purified PR was adsorbed onto PR22 antibody bound to protein A that was absorbed on 96 well plates. 100 μl of RRL lysate and ATP regeneration system was added to each well. After incubation for 30 min at 30° C., 0.1 μM [^3H]-progesterone (American Radiolabeled Chemicals, Inc #ART 0063) was added. Plates were incubated on ice for 2 h at 4° C. Complexes were then washed three times with 200 μl of reaction buffer (20 mM Tris/HCl, pH 7.5, 5 mM MgCl2, 2 mM DTT, 0.01% NP-40, 50 mM KCl and 5 mM ATP) and assessed for bound progesterone by liquid scintillation using PerkinElmer Microbeta plate reader.
Beauvericin was added to the PR reconstitution assay as in example 1, and hormone binding activity was measured.

[3] = tested on: Hsp90, Hsp70, Hsp40, HOP and p23; assay: PR reconstitution assay using the five purified chaperones; type: biochemical; conditions: FIG. 4
Experimental: (§1) Purified PR was adsorbed onto PR22 antibody-protein A-sepharose resin beads and was assembled into complexes as described previously (Kosano, et al., J Biol Chem 273:32973-9 (1998)). Briefly, about 0.05 μM PR was incubated with 1.4 μM Hsp70, 0.8 μM Hsp90β, 0.2 μM Hsp40 (Ydj), 0.08 μM HOP and 2.6 μM p23 in reaction buffer (20 mM Tris/HCl, pH 7.5, 5 mM MgCl2, 2 mM DTT, 0.01% NP-40, 50 mM KCl and 5 mM ATP). After incubation for 30 min at 30° C., 0.1 μM [^3H]-progesterone (American Radiolabeled Chemicals, Inc #ART 0063) was added. Samples were incubated on ice for 3 h at 4° C. Complexes were then washed three times with 1 ml of reaction buffer and assessed for bound progesterone by liquid scintillation using PerkinElmer Microbeta plate reader and for composition of protein complexes by SDS-PAGE (10% gel) and Coomassie blue staining.

PRA complexes = assay: PR reconstitution assay in tubes, composition of protein complexes by SDS-PAGE; type: biochemical, rabbit; conditions: FIG. 3
Experimental: as §1, with “Biol Chem,” for “Biol Chem”, “with 100 μl of RRL.” for “with 1.4 μM Hsp70, 0.8 μM Hsp90β, 0.2 μM Hsp40 (Ydj), 0.08 μM HOP and 2.6 μM p23 in reaction buffer (20 mM Tris/HCl, pH 7.5, 5 mM MgCl2, 2 mM DTT, 0.01% NP-40, 50 mM KCl and 5 mM ATP).”, “ml” for “ml of”, “buffer (20 mM Tris/HCl, pH 7.5, 5 mM MgCl2, 2 mM DTT, 0.01% NP-40, 50 mM KCl and 5 mM ATP)” for “buffer”, “plate reader,” for “plate reader”

[4] = tested on: Hsp90 client proteins in Hs578T cells; assay: Western blot of Hsp90 client proteins, Hs578T; type: cell-based; conditions: 3 μM, 48 h
Experimental: (§2) Breast cancer cell lines Hs578T and MDA-MB-453 at 40% confluence in 6-well plates (Corning #3516) were cultured for 24 h and then treated with various concentrations of beauvericin. Cells were harvested at indicated time and cell lysates were made. 15 μg of protein lysate were analyzed by Western blotting using specific antibodies for the indicated proteins.
(§3) Cell lysates prepared in Example 5 were analyzed for markers for heat shock response using western blot. These include overexpression of Hsp70, Hsp27, Hsp40 and HOP.

[5] = tested on: Hs578T breast cancer cells; assay: Cytotoxicity assay, Hs578T; type: cell-based; conditions: 0-10 μM, 24, 48, 72 h, FIG. 6A
[6] = tested on: Hsp70, Hsp27, Hsp40 and HOP in Hs578T and MDA-MB-453 cells; assay: Western blot of markers for heat shock response; type: cell-based; conditions: 3 μM, 48 h, FIG. 7
Experimental: as §2, §3

HeLa-PRB cells = assay: Immunocytochemistry and fluorescence microscopy, nucleocytoplasmic trafficking of steroid receptors; type: cell-based
Experimental: HeLa-PRB cells were grown in 24-well plates (Corning #3337) on micro-cover glasses (Electron Microscopy Sciences) to about 50% confluence in MEM, 1× (Cellgro #10-010-CV) medium supplemented with 10% fetal bovine serum. Cells were treated with 3 μM beauvericin (or DMSO control) for 24 h. Cells were fixed with 0.1 M PIPES, pH 6.95, 1 mM EGTA, pH 8.0, 3 mM MgSO4, 3% paraformaldehyde, permeabilized with 0.1% triton X-100, and blocked with 10% fetal bovine serum with 5% glycerol and stored at 4° C. Primary antibodies against PRB, GR and Hsp90 and secondary antibodies were prepared in the blocking buffer. Coverslips were washed and mounted on slides with ProLong Gold anti-fade reagent with 4′,6-diamidino-2-phenylindole (Invitrogen). Cells were imaged using a Zeiss Imager M1 microscope. Deconvolution of Z-stack images was done using an inverse filter algorithm with auto-linear normalization.

[7] = tested on: Hsp90 client proteins in MDA-MB-453 cells; assay: Western blot of Hsp90 client proteins, MDA-MB-453; type: cell-based; conditions: 3 μM, 48 h
Experimental: as §2, §3

[8] = tested on: MDA-MB-453 breast cancer cells; assay: Cytotoxicity assay, MDA-MB-453; type: cell-based; conditions: 0-10 μM, 24, 48, 72 h, FIG. 6B

Structure (SMILES): CC(C)[C@@H]1OC(=O)[C@@H](Cc2ccccc2)N(C)C(=O)[C@H](C(C)C)OC(=O)[C@@H](Cc2ccccc2)N(C)C(=O)[C@H](C(C)C)OC(=O)[C@@H](Cc2ccccc2)N(C)C1=O [beauvericin]
- solubility in acetonitrile [1]: 1000 µg/mL (≈ 1280 µM)
- solubility in methanol [1]: 1000 µg/mL (≈ 1280 µM)
- inhibition of reconstitution of PRA in RRL (hormone binding activity) ([2]; FIG. 1, compared with 17-AAG): comparable efficacy to the classical Hsp90 inhibitor 17-AAG
- inhibition of the ability of the Hsp90 chaperone to refold PRA ([2]; FIG. 2, 0, 1, 5, 10, 20, 40 μM): concentration-dependent manner
- inhibitory activity on five-protein system (PRA reconstitution) [3]: no inhibitory activity
- level of Hsp90 in PRA complexes (PRA complexes): decreased
- recruitment of Exportin-7 into PRA complexes (PRA complexes; mass spectrometry): caused the recruitment of a novel protein into these complexes
- AKT destabilization [4]: destabilized
- Her2 destabilization [4]: reverse profile
- cellular degradation of Hsp90 clients (AKT, pAKT, CDK4, ILK, Her2, Her3, GR) ([4]; FIG. 7A): caused cellular degradation
- in vitro cytotoxicity (relative survival) [5]: potent in vitro cytotoxicity
- Hsp40 expression [6]: down-regulates
- overexpression of HOP [6]: does not induce overexpression
- overexpression of Hsp27 ([6]; in contrast to 17-AAG): does not induce overexpression
- overexpression of Hsp70 ([6]; in contrast to 17-AAG): does not induce overexpression
- PRB stability by Western blot (HeLa-PRB cells; HeLa-PRB cells): not destabilized
- PRB recognition by the monoclonal antibody PR6 in immunocytochemistry (HeLa-PRB cells; HeLa-PRB, 3 μM, 24 h): reproducibly blocked
- glucocorticoid receptor (GR) localization (HeLa-PRB cells; HeLa-PRB, 3 μM, 24 h): lock it in the nucleus
- AKT destabilization [7]: not
- Her2 destabilization [7]: reverse profile
- cellular degradation of Hsp90 clients (AKT, pAKT, CDK4, ILK, Her2, Her3, GR) ([7]; FIG. 7B): caused cellular degradation
- in vitro cytotoxicity (relative survival) [8]: potent in vitro cytotoxicity
